Laboratory results taken from patent publication US20070270400A1, “New compounds 303” (priority 2006, published 2007).

Legend:
[1] = biological target: CYP3A4 (Homo sapiens, UniProt P08684); assay: CYP3A4 inhibition according to Bapiro et al; type: in vitro ADME
Experimental: The IC50 values tested according to Bapiro et al; Drug Metab. Dispos. 29, 30-35 (2001) were generally greater than 15 μM.

[2] = biological target: T1, human NK2 receptor (Homo sapiens, UniProt P21452); assay: FLIPR assay, inhibition of human NK2 receptor activation (intracellular Ca2+); type: cell-based; settings: CHO cells with human NK2 receptor, agonist NKA; pKB converted from IC50
T1 construct: expressed in transfected cells
T1 sequence (P21452 1-398): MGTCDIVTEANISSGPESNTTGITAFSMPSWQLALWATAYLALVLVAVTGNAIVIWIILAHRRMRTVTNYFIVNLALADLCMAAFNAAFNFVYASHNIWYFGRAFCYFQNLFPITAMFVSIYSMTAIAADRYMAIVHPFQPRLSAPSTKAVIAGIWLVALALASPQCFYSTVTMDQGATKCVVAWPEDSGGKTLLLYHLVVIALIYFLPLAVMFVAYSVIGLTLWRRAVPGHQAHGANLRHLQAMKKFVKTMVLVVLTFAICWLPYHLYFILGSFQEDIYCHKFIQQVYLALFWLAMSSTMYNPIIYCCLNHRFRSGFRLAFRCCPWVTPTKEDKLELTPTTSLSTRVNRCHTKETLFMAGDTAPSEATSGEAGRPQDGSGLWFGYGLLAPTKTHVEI
Experimental: (§1) Chinese Hamster Ovary (CHO) K1 cells (obtained from ATCC) were stably transfected with the human NK2 receptor (hNK2R cDNA in pRc/CMV, Invitrogen) or the human NK3 receptor (hNK3R in pcDNA 3.1/Hygro (+)/IRES/CD8, Invitrogen vector modified at AstraZeneca EST-Bio UK, Alderley Park). The cells were transfected with the cationic lipid reagent LIPOFECTAMINE™ (Invitrogen) and selection was performed with Geneticin (G418, Invitrogen) at 1 mg/ml for the hNK2R transfected cells and with Hygromycin (Invitrogen) at 500 μg/ml for the hNK3R transfected cells. Single cell clones were collected by aid of Fluorescence Activated Cell Sorter (FACS), tested for functionality in a FLIPR assay (see below), expanded in culture and cryopreserved for future use. […]
(§2) The activity of a compound of the invention to inhibit NK1/NK2/NK3 receptor activation measured as NK1/NK2/NK3 receptor mediated increase in intracellular Ca^2+ was assessed by the following procedure:
(§3) CHO cells stably transfected with human NK1, NK2 or NK3 receptors were plated in black walled/clear bottomed 96-well plates (Costar 3904) at 3.5×10^4 cells per well and grown for approximately 24 h in normal growth media in a 37° C. […] The response was measured as the peak relative fluorescence after agonist addition and IC50s were calculated from ten-point concentration-response curves for each compound. […]

[3] = biological target: hERG-encoded potassium channel (Homo sapiens, UniProt Q12809); assay: Activity against hERG, planar-array-based voltage clamp; type: cell-based
hERG-encoded potassium channel, sequence (Q12809 whole entry): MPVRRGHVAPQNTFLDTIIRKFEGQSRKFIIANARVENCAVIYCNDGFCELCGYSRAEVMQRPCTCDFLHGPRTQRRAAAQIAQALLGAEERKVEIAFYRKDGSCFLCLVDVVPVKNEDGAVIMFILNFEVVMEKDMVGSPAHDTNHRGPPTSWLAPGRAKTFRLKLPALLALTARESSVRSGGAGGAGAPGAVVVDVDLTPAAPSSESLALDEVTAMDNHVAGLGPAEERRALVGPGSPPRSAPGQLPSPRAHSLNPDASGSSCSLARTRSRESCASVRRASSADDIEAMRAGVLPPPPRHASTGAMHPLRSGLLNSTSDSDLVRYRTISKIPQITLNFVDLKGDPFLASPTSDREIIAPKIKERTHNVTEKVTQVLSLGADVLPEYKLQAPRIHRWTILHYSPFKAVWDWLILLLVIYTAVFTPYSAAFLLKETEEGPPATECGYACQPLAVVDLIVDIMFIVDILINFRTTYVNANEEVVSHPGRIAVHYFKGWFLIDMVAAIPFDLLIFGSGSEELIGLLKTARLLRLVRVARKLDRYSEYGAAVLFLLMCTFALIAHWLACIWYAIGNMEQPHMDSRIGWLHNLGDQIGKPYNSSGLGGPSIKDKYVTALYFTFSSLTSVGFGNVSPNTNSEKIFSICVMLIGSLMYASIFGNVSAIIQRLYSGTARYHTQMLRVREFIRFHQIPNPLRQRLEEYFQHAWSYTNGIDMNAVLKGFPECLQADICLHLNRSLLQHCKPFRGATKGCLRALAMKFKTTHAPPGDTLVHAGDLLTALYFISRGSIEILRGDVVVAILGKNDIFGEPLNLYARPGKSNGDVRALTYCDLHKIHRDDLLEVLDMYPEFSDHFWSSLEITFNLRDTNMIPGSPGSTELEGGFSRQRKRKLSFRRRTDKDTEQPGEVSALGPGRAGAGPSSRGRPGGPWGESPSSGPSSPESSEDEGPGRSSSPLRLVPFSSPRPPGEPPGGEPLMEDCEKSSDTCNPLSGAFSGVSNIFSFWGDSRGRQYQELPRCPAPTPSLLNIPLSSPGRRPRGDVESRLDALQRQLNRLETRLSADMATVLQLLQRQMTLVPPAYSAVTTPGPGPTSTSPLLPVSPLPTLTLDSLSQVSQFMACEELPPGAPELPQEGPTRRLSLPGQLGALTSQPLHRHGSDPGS
Description: The activity of compounds according to formula I against the hERG-encoded potassium channel can be determined according to Kiss L, et al. Assay Drug Dev Technol. 1 (2003), 127-35: “High throughput ion-channel pharmacology: planar-array-based voltage clamp”.

[4] = biological target: T2, human NK3 receptor (Homo sapiens, UniProt P29371); assay: FLIPR assay, inhibition of human NK3 receptor activation (intracellular Ca2+); type: cell-based; settings: CHO cells with human NK3 receptor, agonist Pro-7-NKB; pKB converted from IC50
T2 construct: expressed in transfected cells
T2 sequence (P29371 1-465): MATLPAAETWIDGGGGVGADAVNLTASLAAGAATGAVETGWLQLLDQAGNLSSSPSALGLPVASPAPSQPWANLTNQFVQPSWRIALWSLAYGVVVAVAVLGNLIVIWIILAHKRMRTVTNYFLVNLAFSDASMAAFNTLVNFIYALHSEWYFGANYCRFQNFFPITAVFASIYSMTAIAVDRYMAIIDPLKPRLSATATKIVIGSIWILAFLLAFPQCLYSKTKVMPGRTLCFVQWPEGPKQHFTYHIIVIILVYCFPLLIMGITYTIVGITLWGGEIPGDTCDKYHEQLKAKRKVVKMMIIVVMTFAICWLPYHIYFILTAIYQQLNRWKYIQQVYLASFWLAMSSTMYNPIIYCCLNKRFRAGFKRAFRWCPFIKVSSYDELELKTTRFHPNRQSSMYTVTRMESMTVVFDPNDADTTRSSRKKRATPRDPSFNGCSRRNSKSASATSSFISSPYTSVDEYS
Experimental: as §1, §2, §3

[5] = biological target: T3, human NK1 receptor (Homo sapiens, UniProt P25103); assay: FLIPR assay, inhibition of human NK1 receptor activation (intracellular Ca2+); type: cell-based; settings: CHO cells with human NK1 receptor, agonist Substance P; pKB converted from IC50
T3 construct: expressed in transfected cells; AstraZeneca R&D Wilmington), pRcCMV vector
T3 sequence (P25103 whole entry): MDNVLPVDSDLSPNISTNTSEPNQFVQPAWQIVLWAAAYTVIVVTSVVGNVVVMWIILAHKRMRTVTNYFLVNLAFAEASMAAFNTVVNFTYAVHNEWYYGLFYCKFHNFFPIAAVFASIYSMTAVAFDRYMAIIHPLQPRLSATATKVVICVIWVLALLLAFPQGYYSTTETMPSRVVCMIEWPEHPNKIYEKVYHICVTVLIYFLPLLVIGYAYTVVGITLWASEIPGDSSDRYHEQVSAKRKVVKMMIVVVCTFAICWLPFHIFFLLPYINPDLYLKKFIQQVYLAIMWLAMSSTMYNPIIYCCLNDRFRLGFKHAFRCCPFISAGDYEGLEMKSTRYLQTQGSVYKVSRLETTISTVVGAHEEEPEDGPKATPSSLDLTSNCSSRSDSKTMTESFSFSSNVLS
Experimental: as §1, §2, §3

[6] = Metabolic stability in liver microsomes (intrinsic clearance); type: in vitro ADME; settings: human, pH 7.4, HLM
Experimental: The rate of biotransformation can be measured as either metabolite(s) formation or the rate of disappearance of the parent compound. The experimental design involves incubation of low concentrations of substrate (usually 1.0 μM) with liver microsomes (usually 0.5 mg/ml) and taking out aliquotes at varying time points (usually 0, 5, 10, 15, 20, 30, 40 min.). The test compound is usually dissolved in DMSO. The DMSO concentration in the incubation mixture is usually 0.1% or less since more solvent can drastically reduce the activities of some CYP450s. Incubations are done in 100 mM potassium phosphate buffer, pH 7.4 and at 37° C. Acetonitrile or methanol is used to stop the reaction. The parent compound is analysed by HPLC-MS. From the calculated half-life, t1/2, the intrinsic clearance, Clint, is estimated by taking microsomal protein concentration and liver weight into account.

CYP3A4, sequence (P08684 whole entry): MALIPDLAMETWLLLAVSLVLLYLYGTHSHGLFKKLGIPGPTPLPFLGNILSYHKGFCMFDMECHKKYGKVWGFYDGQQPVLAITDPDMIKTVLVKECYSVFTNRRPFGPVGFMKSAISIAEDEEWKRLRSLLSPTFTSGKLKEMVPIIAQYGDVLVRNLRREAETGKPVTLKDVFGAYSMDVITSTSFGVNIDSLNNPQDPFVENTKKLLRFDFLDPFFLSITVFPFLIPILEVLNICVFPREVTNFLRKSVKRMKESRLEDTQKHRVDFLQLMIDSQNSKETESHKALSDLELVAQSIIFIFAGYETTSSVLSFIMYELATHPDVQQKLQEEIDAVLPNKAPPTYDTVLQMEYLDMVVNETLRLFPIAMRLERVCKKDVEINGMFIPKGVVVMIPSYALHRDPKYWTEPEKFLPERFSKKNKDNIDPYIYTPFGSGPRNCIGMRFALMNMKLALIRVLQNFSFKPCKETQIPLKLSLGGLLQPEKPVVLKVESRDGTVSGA

`CC(C)C(=O)N1CCN(C2CN(CC[C@H](CN(C)C(=O)c3cc(Cl)cc(C(F)(F)F)c3)c3ccc(F)cc3)C2)CC1` [Ex 2, 3-Chloro-N-{(2S)-2-(4-fluorophenyl)-4-[3-(4-isobutyrylpiperazin-1-yl)azetidin-1-yl]butyl}-N-methyl-5-(trifluoromethyl)benzamide] gave an IC50 [1] of 18300 nM, a Kb [2] of 31.6 nM and an IC50 [3] of 6600 nM. The Kb [4] was 63.1 nM, the Kb [5] was 10 nM and the microsomal CLint at 1 μM [6] was 36 µL/min/mg.
